Assay results taken from paper PMC10787398, “Simultaneous determination of colistin sulfate and tigecycline in human plasma by liquid chromatography-tandem mass spectrometry method” (BMC Chemistry, 2024).
Counter-ions that a name gives are not always drawn. Where a SMILES comes first, the peptide text is derived from it. Bridges are numbered along the chain shown (N, C = ends). [ ]: non-standard residue; d: D form. The star is where a group is joined. X1 = CC[C@H](C)CCCCC(=O)*; Dab = NCC[C@H](N)C(=O)O

Columns and labels:
[1] = within 8 h after administration; no reference given; cited from earlier work
From the text: The PK process of the drug in the body is often affected in patients with serious diseases accompanied by microcirculation disorders, hypoproteinemia, liver and kidney insufficiency, and other special pathophysiological states. Large fluctuations in plasma drug concentrations are commonly observed in these cases. TDM can aid in the optimization of administration dosage, individualized dosing, and anti-infective efficacy. Since colistin sulfate has not undergone modern drug development procedures, the current pharmacokinetic data remain unclear, and the plasma concentration is closely correlate ...

[2] = Plasma trough and peak concentrations in patients on intravenous polymyxin and tigecycline (HPLC-MS/MS); conditions: human, in vivo, iv, iv
From the text: Plasma samples were collected from patients receiving simultaneous intravenous polymyxin and tigecycline treatment. Inclusion criteria: ① Patients receiving simultaneous intravenous polymyxin and tigecycline treatment; ② Age ≥ 18 years; ③ Patients who consent to the monitoring of polymyxin and tigecycline blood drug concentrations during treatment. Exclusion criteria: ① Pregnant or lactating women; ② Treatment duration < 3 days; ③ Local administration; ④ Blood dialysis treatment. Once the blood drug concentration reached a steady state, 3 ml of venous blood was collected before and 30 min after the seventh administration to measure the peak and trough concentrations. This study was conducted with approval from the Ethics Committee of Second Hospital of Hebei Medical University (2020-R551). This study was conducted in accordance with the declaration of Helsinki.
Two hundred microliters of the plasma sample were adopted, with 20 µL of the internal standard added, and it was vortexed for 20 s. Two hundred microliters of 5% trichloroacetic acid was added for acidification and vortexed for 10 s. Two hundred microliters of methanol was added for extraction, vortexed for 2 min, and centrifuged at 10,900 r/min for 5 min. Two hundred microliters of the supernatant were aspirated into the injection bottle, and 10 µL of the sample was injected for the HPLC–MS/MS analysis.
All patients received an initial dose of 100 mg and a maintenance dose of 50 mg q12h for tigecycline. Three milliliters of venous blood were collected before and after the seventh administration to measure the peak and trough concentrations of the drugs.

[3] = Stability of analytes in spiked plasma samples under storage conditions; type: in vitro ADME, human; conditions: for Measured value, Stored at -80℃ for 7 days / Measured value, Automatic sampler 15℃ for 24 h / Measured value, Freeze-thaw for 3 cycles / Measured value, At 4℃ for 12 h / Measured value, At room temperature for 6 h: HPLC-MS/MS, n = 5; for Measured value, Automatic sampler 15℃ for 24 h: automatic sampler 15 ℃ 24 h; for Measured value, Freeze-thaw for 3 cycles: frozen at -80 °C and thawed at room temperature; for Measured value, At 4℃ for 12 h: refrigerator 4 °C 12 h
Description: Plasma samples with low, medium, and high mass concentrations were prepared (the mass concentrations of colistin sulfate were 0.1, 1, and 8 µg/mL, respectively, and those of tigecycline were 0.05, 0.5, and 4 µg/mL, respectively). Five replicates of each concentration were prepared and placed in a refrigerator at 4 °C for 12 h, at room temperature for 6 h, and in an automatic sampler at 15 ℃ for 24 h. The samples were, on three occasions, frozen at − 80 °C and thawed at room temperature, and then placed in a − 80 °C refrigerator for seven days. The concentrations and RSDs of colistin sulfate and tigecycline in the plasma samples were calculated based on the accompanying standard curve of the day to evaluate their stabilities.

[4] = plasma QC high, nominal colistin sulfate 8 µg/mL, tigecycline 4 µg/mL
[5] = plasma QC low, nominal colistin sulfate 0.1 µg/mL, tigecycline 0.05 µg/mL
[6] = plasma QC medium, nominal colistin sulfate 1 µg/mL, tigecycline 0.5 µg/mL

CC[C@H](C)CCCCC(=O)N[C@@H](CCN)C(=O)N[C@H](C(=O)N[C@@H](CCN)C(=O)N[C@H]1CCNC(=O)[C@H]([C@@H](C)O)NC(=O)[C@H](CCN)NC(=O)[C@H](CCN)NC(=O)[C@H](CC(C)C)NC(=O)[C@@H](CC(C)C)NC(=O)[C@H](CCN)NC1=O)[C@@H](C)O [Colistin sulfate, colistin sulfate] (X1-[Dab]T[Dab][Dab][Dab][dL]L[Dab][Dab]T; lactam 4-C)
administered dose excreted in the urine [1]: 40% | level at 0.5 h ([2]; both, peak concentration of colistin sulfate, range over patients, 12 adult patients, steady state, after 7th administration, plasma, HPLC-MS/MS): 890 to 4560 ng/mL | Cmax ([2]; female, 500000 IU): 890 ng/mL | Measured value, Stored at -80℃ for 7 days ([3]; plasma QC high, nominal colistin sulfate 8 µg/mL, tigecycline 4 µg/mL, -80 °C 7 days): 8.30 ± 0.32 µg/mL | Measured value, Automatic sampler 15℃ for 24 h [3, 4]: 8.17 ± 0.19 µg/mL | Measured value, Freeze-thaw for 3 cycles [3, 4]: 8.70 ± 0.54 µg/mL | Measured value, At 4℃ for 12 h [3, 4]: 8.23 ± 0.61 µg/mL | Measured value, At room temperature for 6 h ([3]; plasma QC high, nominal colistin sulfate 8 µg/mL, tigecycline 4 µg/mL, room temperature 6 h): 8.26 ± 0.30 µg/mL | Measured value, Stored at -80℃ for 7 days ([3]; plasma QC low, nominal colistin sulfate 0.1 µg/mL, tigecycline 0.05 µg/mL, -80 °C 7 days): 0.10 ± 0.00 µg/mL | Measured value, Automatic sampler 15℃ for 24 h [3, 5]: 0.10 ± 0.00 µg/mL | Measured value, Freeze-thaw for 3 cycles [3, 5]: 0.09 ± 0.00 µg/mL | Measured value, At 4℃ for 12 h [3, 5]: 0.09 ± 0.01 µg/mL | Measured value, At room temperature for 6 h ([3]; plasma QC low, nominal colistin sulfate 0.1 µg/mL, tigecycline 0.05 µg/mL, room temperature 6 h): 0.10 ± 0.00 µg/mL | Measured value, Stored at -80℃ for 7 days ([3]; plasma QC medium, nominal colistin sulfate 1 µg/mL, tigecycline 0.5 µg/mL, -80 °C 7 days): 0.98 ± 0.09 µg/mL | Measured value, Automatic sampler 15℃ for 24 h [3, 6]: 0.93 ± 0.01 µg/mL | Measured value, Freeze-thaw for 3 cycles [3, 6]: 1.04 ± 0.04 µg/mL | Measured value, At 4℃ for 12 h [3, 6]: 0.93 ± 0.04 µg/mL | Measured value, At room temperature for 6 h ([3]; plasma QC medium, nominal colistin sulfate 1 µg/mL, tigecycline 0.5 µg/mL, room temperature 6 h): 1.00 ± 0.05 µg/mL | stability under the above conditions ([3]; plasma samples, 4 °C 12 h, room temperature 6 h, autosampler 15 ℃ 24 h, 3 freeze-thaw cycles, -80 °C 7 days): good stability
